Read-outs that look alike come from different tables or passages of the source.
Legend:
[1] = Example 9: % Add on of 91.4% polyamide/8.6% elastane after 1 h in aqueous 10% PEG 400, 10% propylene glycol, 2% Polysorbate 80 with lidocaine, dried overnight at RT; assay type: physicochemical
[2] = assay type: physicochemical; conditions: 25° C.
[3] = Example 11: % Add on from aqueous lidocaine without excipients, 60° C., 1 h, 91.4% polyamide/8.6% elastane; assay type: physicochemical
[4] = Example 20: loading kinetics, aqueous 10% lidocaine, 10% PEG 400, 10% propylene glycol, 2% Polysorbate 80, 60° C., pre-cut shapes of 91.4% polyamide/8.6% elastane, squeezed; assay type: physicochemical
[5] = Example 21: % Add on by finish composition, 60° C., 1 h, 91.4% polyamide/8.6% elastane; assay type: physicochemical
[6] = Example 22: % Add on by humectant and permeation enhancer concentration, 60° C., 1 h, squeezed; assay type: physicochemical; conditions: 3% lidocaine
[7] = Example 23: % Add on by surfactant concentration, 60° C., 1 h; assay type: physicochemical; conditions: 3% lidocaine
[8] = Example 26: leveling; % lidocaine Add on from extraction in 0.01M HCl and HPLC; assay type: physicochemical
[9] = 3% lidocaine, 2% Polysorbate 80
[10] = 3% lidocaine, 10% PEG 400, 2% Polysorbate 80
[11] = 3% lidocaine, 10% PEG 400, 10% propylene glycol
[12] = 3% lidocaine, 10% PEG 400, 10% propylene glycol, 2% Polysorbate 80
[13] = 3% lidocaine, 10% propylene glycol
[14] = 3% lidocaine, 10% propylene glycol, 2% Polysorbate 80

## CCN(CC)CC(=O)Nc1c(C)cccc1C [Lidocaine, lidocaine]
[1]; lidocaine 0.1% (w/w), 2-8° C.
  % Add on: 25.93%
[1]; lidocaine 0.1% (w/w), 50° C.
  % Add on: 32.73%
[1]; lidocaine 0.1% (w/w), 80° C.
  % Add on: 32.20%
[1]; lidocaine 0.1% (w/w), RT
  % Add on: 23.91%
[1]; lidocaine 0.5% (w/w), 2-8° C.
  % Add on: 31.48%
[1]; lidocaine 0.5% (w/w), 50° C.
  % Add on: 29.79%
[1]; lidocaine 0.5% (w/w), 80° C.
  % Add on: 23.91%
[1]; lidocaine 0.5% (w/w), RT
  % Add on: 26.79%
[1]; lidocaine 1% (w/w), 2-8° C.
  % Add on: 34.00%
[1]; lidocaine 1% (w/w), 50° C.
  % Add on: 64.44%
[1]; lidocaine 1% (w/w), 80° C.
  % Add on: 32.14%
[1]; lidocaine 1% (w/w), RT
  % Add on: 33.96%
[1]; lidocaine 3% (w/w), 2-8° C.
  % Add on: 40.00%
[1]; lidocaine 3% (w/w), 50° C.
  % Add on: 56.52%
[1]; lidocaine 3% (w/w), 80° C.
  % Add on: 48.98%
[1]; lidocaine 3% (w/w), RT
  % Add on: 43.75%
[1]; lidocaine 5% (w/w), 2-8° C.
  % Add on: 60.00%
[1]; lidocaine 5% (w/w), 50° C.
  % Add on: 46.00%
[1]; lidocaine 5% (w/w), 80° C.
  % Add on: 64.91%
[1]; lidocaine 5% (w/w), RT
  % Add on: 47.27%
[1]; lidocaine 8% (w/w), 2-8° C.
  % Add on: 50.00%
[1]; lidocaine 8% (w/w), 50° C.
  % Add on: 64.15%
[1]; lidocaine 8% (w/w), 80° C.
  % Add on: 89.13%
[1]; lidocaine 8% (w/w), RT
  % Add on: 58.00%
[1]; lidocaine 10% (w/w), 2-8° C.
  % Add on: 55.77%
[1]; lidocaine 10% (w/w), 50° C.
  % Add on: 74.55%
[1]; lidocaine 10% (w/w), 80° C.
  % Add on: 78.72%
[1]; lidocaine 10% (w/w), RT
  % Add on: 102.04%
[1]; lidocaine 15% (w/w), 2-8° C.
  % Add on: 69.77%
[1]; lidocaine 15% (w/w), 50° C.
  % Add on: 95.74%
[1]; lidocaine 15% (w/w), 80° C.
  % Add on: 117.78%
[1]; lidocaine 15% (w/w), RT
  % Add on: 116.98%
[1]; lidocaine 20% (w/w), 2-8° C.
  % Add on: 78.72%
[1]; lidocaine 20% (w/w), 50° C.
  % Add on: 107.41%
[1]; lidocaine 20% (w/w), 80° C.
  % Add on: 116.00%
[1]; lidocaine 20% (w/w), RT
  % Add on: 134.04%
[1]; lidocaine 25% (w/w), 2-8° C.
  % Add on: 132.08%
[1]; lidocaine 25% (w/w), 50° C.
  % Add on: 124.00%
[1]; lidocaine 25% (w/w), 80° C.
  % Add on: 132.56%
[1]; lidocaine 25% (w/w), RT
  % Add on: 269.57%
[2]; lidocaine 0.1%, dried at RT
  % Add on: 42.31%
[2]; lidocaine 0.1%, squeezed
  % Add on: 7.23%
[2]; lidocaine 0.1%, washed in NaOH
  % Add on: 2.74%
[2]; lidocaine 0.1%, washed in water
  % Add on: 1.40%
[2]; lidocaine 25%, dried at RT
  % Add on: 118.56%
[3]; lidocaine 0.1% w/w, dried at RT
  % Add on: 1.03%
[3]; lidocaine 0.1% w/w, squeezed
  % Add on: 1.09%
[3]; lidocaine 0.4% w/w, dried at RT
  % Add on: 2.86%
[3]; lidocaine 0.4% w/w, squeezed
  % Add on: 2.91%
[3]; lidocaine 1% w/w, dried at RT
  % Add on: 8.03%
[3]; lidocaine 1% w/w, squeezed
  % Add on: 7.57%
[3]; lidocaine 3% w/w, dried at RT
  % Add on: 22.17%
[3]; lidocaine 3% w/w, squeezed
  % Add on: 28.01%
[3]; lidocaine 5% w/w, dried at RT
  % Add on: 31.61%
[3]; lidocaine 5% w/w, squeezed
  % Add on: 39.06%
[3]; lidocaine 10% w/w, dried at RT
  % Add on: 102.39%
[3]; lidocaine 10% w/w, squeezed
  % Add on: 30.39%
[3]; lidocaine 15% w/w, dried at RT
  % Add on: 62.68%
[3]; lidocaine 15% w/w, squeezed
  % Add on: 98.46%
[3]; lidocaine 25% w/w, dried at RT
  % Add on: 56.33%
[3]; lidocaine 25% w/w, squeezed
  % Add on: 148.02%
[4]; loading time 1 min, Combined
  % Add on: 29.915%
[4]; loading time 1 min, Shape A
  % Add on: 29.820%
[4]; loading time 1 min, Shape B
  % Add on: 27.838%
[4]; loading time 1 min, Shape C
  % Add on: 30.455%
[4]; loading time 1 min, Shape D
  % Add on: 31.547%
[4]; loading time 2 min, Combined
  % Add on: 35.227%
[4]; loading time 2 min, Shape A
  % Add on: 34.985%
[4]; loading time 2 min, Shape B
  % Add on: 36.019%
[4]; loading time 2 min, Shape C
  % Add on: 34.260%
[4]; loading time 2 min, Shape D
  % Add on: 35.643%
[4]; loading time 3 min, Combined
  % Add on: 36.500%
[4]; loading time 3 min, Shape A
  % Add on: 37.273%
[4]; loading time 3 min, Shape B
  % Add on: 36.782%
[4]; loading time 3 min, Shape C
  % Add on: 35.879%
[4]; loading time 3 min, Shape D
  % Add on: 36.064%
[4]; loading time 6 min, Combined
  % Add on: 41.938%
[4]; loading time 6 min, Shape A
  % Add on: 42.242%
[4]; loading time 6 min, Shape B
  % Add on: 44.328%
[4]; loading time 6 min, Shape C
  % Add on: 40.764%
[4]; loading time 6 min, Shape D
  % Add on: 40.418%
[4]; loading time 10 min, Combined
  % Add on: 41.190%
[4]; loading time 10 min, Shape A
  % Add on: 39.998%
[4]; loading time 10 min, Shape B
  % Add on: 44.262%
[4]; loading time 10 min, Shape C
  % Add on: 40.939%
[4]; loading time 10 min, Shape D
  % Add on: 39.560%
[4]; loading time 60 min, Combined
  % Add on: 44.374%
[4]; loading time 60 min, Shape B
  % Add on: 41.509%
[4]; loading time 60 min, Shape C
  % Add on: 48.701%
[4]; loading time 60 min, Shape D
  % Add on: 41.556%
[4]; loading time 120 min, Combined
  % Add on: 42.458%
[4]; loading time 120 min, Shape A
  % Add on: 42.233%
[4]; loading time 120 min, Shape B
  % Add on: 43.286%
[4]; loading time 120 min, Shape C
  % Add on: 43.679%
[4]; loading time 120 min, Shape D
  % Add on: 40.635%
[4]; loading time 180 min, Combined
  % Add on: 41.691%
[4]; loading time 180 min, Shape A
  % Add on: 42.281%
[4]; loading time 180 min, Shape B
  % Add on: 40.802%
[4]; loading time 180 min, Shape C
  % Add on: 42.474%
[4]; loading time 180 min, Shape D
  % Add on: 41.206%
[5]; 3% lidocaine only
  Mean % Add on (dried at RT): 37.25%
  Mean % Add on (squeezed): 20.27%
[5]; [9]
  Mean % Add on (dried at RT): 19.10%
  Mean % Add on (squeezed): 14.97%
[5]; 3% lidocaine, 10% PEG 400
  Mean % Add on (dried at RT): 54.02%
  Mean % Add on (squeezed): 32.03%
[5]; [10]
  Mean % Add on (dried at RT): 42.88%
  Mean % Add on (squeezed): 24.91%
[5]; [11]
  Mean % Add on (dried at RT): 56.37%
  Mean % Add on (squeezed): 30.01%
[5]; [12]
  Mean % Add on (dried at RT): 40.92%
  Mean % Add on (squeezed): 25.73%
[5]; [13]
  Mean % Add on (dried at RT): 34.89%
  Mean % Add on (squeezed): 21.14%
[5]; [14]
  Mean % Add on (dried at RT): 19.34%
  Mean % Add on (squeezed): 14.48%
[6]; 2% PEG 400, 2% Polysorbate 80
  Mean % Add on: 16.59%
[6]; 2% propylene glycol, 2% Polysorbate 80
  Mean % Add on: 14.96%
[6]; 8% PEG 400, 2% Polysorbate 80
  Mean % Add on: 26.06%
[6]; 8% propylene glycol, 2% Polysorbate 80
  Mean % Add on: 15.93%
[6]; 15% PEG 400, 2% Polysorbate 80
  Mean % Add on: 30.96%
[6]; 15% propylene glycol, 2% Polysorbate 80
  Mean % Add on: 14.84%
[6]; 20% PEG 400, 2% Polysorbate 80
  Mean % Add on: 37.95%
[6]; 20% propylene glycol, 2% Polysorbate 80
  Mean % Add on: 16.03%
[7]; 2% Polysorbate 80
  Mean % Add on (dried at RT): 16.18%
[7]; 5% Polysorbate 80
  Mean % Add on (dried at RT): 22.89%
[7]; 8% Polysorbate 80
  Mean % Add on (dried at RT): 21.18%
[7]; 10% PEG 400
  Mean % Add on (dried at RT): 39.67%
[7]; 10% Polysorbate 80
  Mean % Add on (dried at RT): 24.11%
[7]; 10% propylene glycol
  Mean % Add on (dried at RT): 23.99%
[7]; 15% Polysorbate 80
  Mean % Add on (dried at RT): 33.29%
[7]; 20% Polysorbate 80
  Mean % Add on (dried at RT): 38.08%
[8]; exposure to 0.01M HCl 1 hr
  % lidocaine Add on: 18.86%
[8]; exposure to 0.01M HCl 2 hr
  % lidocaine Add on: 18.07%
[8]; exposure to 0.01M HCl 4 hr
  % lidocaine Add on: 18.78%
[8]; exposure to 0.01M HCl 6 hr
  % lidocaine Add on: 18.25%
[8]; exposure to 0.01M HCl 22 hr
  % lidocaine Add on: 18.04%

Reference: US20230255884A1, “FINISHED FIBROUS SRUCTURES AND METHODS OF THEIR USE AND PREPARATION” (CLEXIO BIOSCIENCES LTD., priority 2019, published 2023)
